# Assay results published in patent US10633389B2, “CARM1 inhibitors and uses thereof” (Epizyme, Inc., priority 2013, dated 2020).
# How the values were obtained:
# [1] = tested on: asymmetric di-methyl PABP1 in RKO cells; experiment: RKO methylation assay, In Cell Western (ICW) for asymmetric di-methyl PABP1; type: cell-based; conditions: Cellular potencies, ICW PABP1me2a
# Procedure, shortened: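 RKO cells treated with compound for 48 h at 37 °C, then fixed, permeabilized and immunostained for asymmetric di-methyl PABP1, with DRAQ5 as DNA stain. Infrared 700/800 nm signal ratio normalized to DMSO and 20 μM reference-compound controls; IC50 from triplicate wells.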
# human CARM1 (PRMT4) = human CARM1 (PRMT4) (Homo sapiens (Human), UniProt Q86X55); experiment: CARM1 enzyme assay on peptide substrate (3H-SAM Flashplate); conditions: Biochemical potencies, read-out: Biochem IC50
# Chain of human CARM1 (PRMT4) (Q86X55 other isoform, or with tags, fused parts or gaps isoform Q86X55-1): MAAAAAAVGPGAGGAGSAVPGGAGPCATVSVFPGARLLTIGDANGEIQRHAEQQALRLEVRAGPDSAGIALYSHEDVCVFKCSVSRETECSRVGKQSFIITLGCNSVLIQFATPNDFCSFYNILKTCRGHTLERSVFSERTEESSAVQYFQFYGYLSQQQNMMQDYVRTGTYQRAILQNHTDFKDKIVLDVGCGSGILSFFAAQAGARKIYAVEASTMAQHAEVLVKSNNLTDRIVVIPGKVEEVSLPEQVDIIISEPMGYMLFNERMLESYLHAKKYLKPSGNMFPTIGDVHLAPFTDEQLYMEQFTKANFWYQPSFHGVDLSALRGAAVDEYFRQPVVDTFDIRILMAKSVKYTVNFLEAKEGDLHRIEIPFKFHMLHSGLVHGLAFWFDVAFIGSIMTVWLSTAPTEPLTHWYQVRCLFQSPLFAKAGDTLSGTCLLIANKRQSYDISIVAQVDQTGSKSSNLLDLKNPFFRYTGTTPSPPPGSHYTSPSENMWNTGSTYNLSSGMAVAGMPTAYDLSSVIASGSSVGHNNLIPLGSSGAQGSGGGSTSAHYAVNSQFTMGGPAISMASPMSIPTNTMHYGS
# Source text: S-adenosylmethionine (SAM), S-adenosylhomocysteine (SAH), bicine, Tween20, dimethylsulfoxide (DMSO), bovine skin gelatin (BSG), sodium butyrate and Tris(2-carboxyethyl)phosphine hydrochloride solution (TCEP) were purchased from Sigma-Aldrich at the highest level of purity possible. ^3H-SAM was purchase from American Radiolabeled Chemicals with a specific activity of 80 Ci/mmol. 384-well streptavidin Flashplates were purchased from PerkinElmer.
# Peptide representative of human histone H3 residues 16-30 was synthesized with an N-terminal linker-affinity tag motif and a C-terminal amide cap by 21st Century Biochemicals. […] The sequence was Biot-Ahx-[…]-amide and contained a monomethylated arginine at position 26 (SEQ ID NO.:1).
# The gene sequence encoding isoform 1 containing a deletion of amino acids 539-561 was amplified subsequently and subcloned into pFastBacMam (Viva Biotech).
# Recombinant baculovirus were generated according to Bac-to-Bac kit instructions (Life Technologies). Protein over-expression was accomplished by infecting exponentially growing HEK 293F cell culture at 1.3×10^6 cell/ml with virus (MOI=10) in the presence of 8 mM sodium butyrate. Infections were carried out at 37° C. for 48 hours, harvested by centrifugation, and stored at −80° C. for purification.
# Expressed full-length human Flag- and His-tagged CARM1 protein was purified from cell paste by anti-flag M2 affinity chromatography with resin equilibrated with buffer containing 20 mM Tris, 150 mM NaC, 5% glycerol, pH 7.8. Column was washed with 500 mM NaCl in buffer A and Flag-CARM1-His was eluted with 200 ug/ml FLAG peptide in buffer A. Pooled fractions were dialyzed in 20 mM Tris, 150 mM NaCl, 5% glycerol and 1 mM DTT, pH 7.8.
# The assays were all performed in a buffer consisting of 20 mM Bicine (pH=7.6), 1 mM TCEP, 0.005% BSG, and 0.002% Tween 20, prepared on the day of use. Compounds in 100% DMSO (1 ul) were spotted into a polypropylene 384-well V-bottom plates (Greiner) using a Platemate Plus outfitted with a 384-channel head (Thermo Scientific). DMSO (1 ul) was added to Columns 11, 12, 23, 24, rows A-H for the maximum signal control and 1 ul of SAH, a known product and inhibitor of CARM1, was added to columns 11, 12, 23, 24, rows I-P for the minimum signal control. A cocktail (40 ul) containing the CARM1 enzyme was added by Multidrop Combi (Thermo-Fisher). The compounds were allowed to incubate with CARM1 for 30 min at room temperature, then a cocktail (10 ul) containing ^3H-SAM and peptide was added to initiate the reaction (final volume=51 ul). The final concentrations of the components were as follows: CARM1 was 0.25 nM, ^3H-SAM was 30 nM, peptide was 250 nM, SAH in the minimum signal control wells was 1 mM, and the DMSO concentration was 2%. The assays were stopped by the addition of non-radiolabeled SAM (10 ul) to a final concentration of 300 uM, which dilutes the ^3H-SAM to a level where its incorporation into the peptide substrate is no longer detectable. 50 ul of the reaction in the 384-well polypropylene plate was then transferred to a 384-well Flashplate and the biotinylated peptides were allowed to bind to the streptavidin surface for at least 1 hour before being washed once with 0.1% Tween20 in a Biotek ELx405 plate washer. The plates were then read in a PerkinElmer TopCount plate reader to measure the quantity of ^3H-labeled peptide bound to the Flashplate surface, measured as disintegrations per minute (dpm) or alternatively, referred to as counts per minute (cpm).
# The Hill Coefficient normally allowed to float but may also be fixed at 1 in a 3-parameter fit.
"IC50 ([1]; Homo sapiens, RKO)",IC50 (human CARM1 (PRMT4)),IC50 [1],Structure (SMILES)
10 to 20 µM,0.1 to 1 µM,–,CNCC(O)COc1cccc(-c2nc(C(=O)N(C)C)cc(N(C)C3CCOCC3)n2)c1 (stereo not shown) [Example 593-1a]
10 to 20 µM,1 to 3 µM,–,CNCC(O)COc1cccc(-c2nc(C(=O)N3CCOCC3)cc(N(C)C3CCOCC3)n2)c1 (stereo not shown) [Example 604-1a]
10 to 20 µM,0.1 to 1 µM,–,CNCC(O)COc1cccc(-c2nc(NCC3(CCl)CCOCC3)cc(N(C)C3CCOCC3)n2)c1 (stereo not shown) [Example 584-1a]
5 to 10 µM,0.1 to 1 µM,–,CNCC(O)COc1cccc(-c2nc(-c3ccnc(C(=O)N(C)C)c3)cc(N(C)C3CCOCC3)n2)c1 (stereo not shown) [Example 535-1a]
10 to 20 µM,0.1 to 1 µM,–,CNCC(O)COc1cccc(-c2nc(C3CCN(C(C)=O)CC3)cc(N(C)C3CCOCC3)n2)c1 (stereo not shown) [Example 546-1a]
10 to 20 µM,0.1 to 1 µM,–,CNCC(O)COc1cccc(-c2nc(N3CCN(C(=O)OC)CC3)cc(N(C)C3CCOCC3)n2)c1 (stereo not shown) [Example 585-1a]
≥ 20 µM,0.1 to 1 µM,–,CNCC(O)COc1cccc(-c2nc(NCCCN3CCCC3=O)cc(-c3cccc4ncccc34)n2)c1 (stereo not shown) [Example 648-1a]
10 to 20 µM,0.1 to 1 µM,–,CNCC(O)COc1cccc(-c2nc(N(C)C3CCOCC3)c(C)c(C(C)(C)O)n2)c1 (stereo not shown) [Example 545-1a]
10 to 20 µM,3 to 10 µM,–,CNCC(O)COc1cc(Cl)cc(-c2nc(C(=O)O)cc(N(C)C3CCOCC3)n2)c1 (stereo not shown) [Example 608-1a]
≥ 20 µM,1 to 3 µM,–,CNCC(O)COc1cccc(-c2nc(NC3(C)CCOCC3)cc(N3CCOCC3)n2)c1 (stereo not shown) [Example 684-1a]
10 to 20 µM,0.1 to 1 µM,–,CNCC(O)COc1cccc(-c2nc(NCC3CCOCC3)cc(N(C)C3CCOCC3)n2)c1 (stereo not shown) [Example 540-1a]
10 to 20 µM,0.1 to 1 µM,–,CNCC(O)COc1cccc(-c2nc(N3CCC4(CCOC4)CC3)cc(N(C)C3CCOCC3)n2)c1 (stereo not shown) [Example 582-1a]
10 to 20 µM,0.1 to 1 µM,–,CNCC(O)COc1cccc(-c2nc(N[C@@H]3CCOC3)c(C)c(N3CCCC3c3nc(C)no3)n2)c1 (stereo partly shown) [Example 472-1a]
10 to 20 µM,0.1 to 1 µM,–,CNCC(O)COc1cccc(-c2nc(N[C@@H]3CCOC3)c(C)c(-c3cnccn3)n2)c1 (stereo partly shown) [Example 451-1a]
–,0.1 to 1 µM,10 to 20 µM,CNCC(O)COc1cccc(-c2nc(N[C@H]3CO[C@H]4OCC[C@H]43)c(C)c(N3CCOCC3)n2)c1 (stereo partly shown) [Example 673-1a]
10 to 20 µM,0.1 to 1 µM,–,CNCC(O)COc1cccc(-c2nc(N(C)c3cnc(C)nc3)cc(N(C)C3CCOCC3)n2)c1 (stereo not shown) [Example 588-1a]
5 to 10 µM,0.1 to 1 µM,–,CNCC(O)COc1cccc(-c2nc(C3CCN(S(C)(=O)=O)CC3)cc(N(C)C3CCOCC3)n2)c1 (stereo not shown) [Example 527-1a]
5 to 10 µM,0.1 to 1 µM,–,CNCC(O)COc1cccc(-c2nc(C3CCN(C(=O)N(C)C)CC3)cc(N(C)C3CCOCC3)n2)c1 (stereo not shown) [Example 515-1a]
≥ 20 µM,0.1 to 1 µM,–,CNCC(O)COc1cccc(-c2nc(NCCOC)cc(-c3cncnc3)n2)c1 (stereo not shown) [Example 659-1a]

# Continued, molecule first:
Structure (SMILES),"IC50 ([1]; Homo sapiens, RKO)",IC50 (human CARM1 (PRMT4)),IC50 [1]
CNCC(O)COc1cccc(-c2nc(NC3CCOC3)c(C)c(N3CCNC(C(F)(F)F)C3)n2)c1 (stereo not shown) [Example 419-1a],10 to 20 µM,0.1 to 1 µM,–
CNCC(O)COc1cccc(-c2nc(NC(C)C3CCOCC3)cc(-c3c(C)noc3C)n2)c1 (stereo not shown) [Example 158-1a],5 to 10 µM,0.1 to 1 µM,–
CNCC(O)COc1cccc(-c2nc(N[C@@H]3CCOC3)c(C)c(N3CCC(O)CC3)n2)c1 (stereo partly shown) [Example 361-1a],10 to 20 µM,0.1 to 1 µM,–
CNCC(O)COc1cccc(-c2nc(N[C@@H]3CCOC3)c(C)c(N3CCNC(C(F)(F)F)C3)n2)c1 (stereo partly shown) [Example 428-1a],10 to 20 µM,0.1 to 1 µM,–
CNCC(O)COc1cccc(-c2nc(N[C@@H]3CCOC3)c(C)c(-c3ccnn3C)n2)c1 (stereo partly shown) [Example 337-1a],5 to 10 µM,0.1 to 1 µM,–
CNCC(O)COc1cccc(-c2nc(NC3CCOC3)c(C)c(C(=O)NC)n2)c1 (stereo not shown) [Example 384-1a],10 to 20 µM,0.1 to 1 µM,–
CNCC(O)COc1cccc(-c2nc(NC3CCOCC3)cc(N(C)C)n2)c1 (stereo not shown) [Example 8-1],–,0.1 to 1 µM,–
CNCC(O)COc1cccc(-c2nc(N[C@@H]3CCOC3)c(C)c(-c3cnc(=O)[nH]c3)n2)c1 (stereo partly shown) [Example 357-1a],10 to 20 µM,0.1 to 1 µM,–
CNCC(O)COc1cccc(-c2nc(NC3CCOC3)c(C)c(C(=O)N(C)C3CCOCC3)n2)c1 (stereo not shown) [Example 402-1a],10 to 20 µM,3 to 10 µM,–
CNCC(O)COc1cccc(-c2nc(N[C@H]3C[C@H](C(=O)O)C3)c(C)c(-c3c(C)noc3C)n2)c1 (stereo partly shown) [Example 222-1a],10 to 20 µM,0.1 to 1 µM,–
CNCC(O)COc1cccc(-c2nc(N[C@@H]3CCOC3)c(C)c(N3CCn4cnnc4C3)n2)c1 (stereo partly shown) [Example 418-1a],10 to 20 µM,0.1 to 1 µM,–
COC(=O)N1CC[C@H](Nc2nc(-c3cc(OC[C@H](O)CN(C)C)ccc3Cl)nc(-c3c(C)noc3C)c2C)C[C@@H]1C [Example 193-3],≥ 20 µM,0.1 to 1 µM,–
CNCC(O)COc1cccc(-c2nc(N[C@@H]3CCOC3)c(C)c(N3CCn4c(nnc4C(F)(F)F)C3)n2)c1 (stereo partly shown) [Example 365-1a],10 to 20 µM,0.1 to 1 µM,–
CNCC(O)COc1cccc(-c2nc(N[C@@H]3CCOC3)c(C)c(-c3ccc(=O)[nH]c3)n2)c1 (stereo partly shown) [Example 409-1a],10 to 20 µM,0.1 to 1 µM,–
CNC[C@@H](O)COc1ccc(F)c(-c2nc(-c3c(C)noc3C)c(C)c(-c3c(C)noc3C)n2)c1 [Example 78-3],≥ 20 µM,0.1 to 1 µM,–
CNCC(O)COc1cccc(-c2nc(N[C@@H]3CCOC3)c(C)c(N3CCNC(=O)C3)n2)c1 (stereo partly shown) [Example 380-1a],10 to 20 µM,0.1 to 1 µM,–
CNCC(O)COc1cccc(-c2nc(NC3CCOCC3)cc(N(C3CC3)[C@@H]3CCOC3)n2)c1 (stereo partly shown) [Example 372-1a],10 to 20 µM,1 to 3 µM,–
CNCC(O)COc1cccc(-c2nc(N[C@@H]3CCOC3)c(C)c(N(CCC#N)C3CC3)n2)c1 (stereo partly shown) [Example 426-1a],10 to 20 µM,0.1 to 1 µM,–
CNCC(O)COc1cccc(-c2nc(N3CCN(C(C)=O)[C@@H](C)C3)c(C)c(N(C)[C@@H]3CCOC3)n2)c1 (stereo partly shown) [Example 410-1a],5 to 10 µM,0.1 to 1 µM,–
CNCC(O)COc1cccc(-c2nc(NC3CCOC3)c(C)c(N3CCC4(CCCO4)CC3)n2)c1 (stereo not shown) [Example 420-1a],5 to 10 µM,0.1 to 1 µM,–
CNCC(O)COc1cc(Cl)cc(-c2nc(N[C@@H]3CCOC3)c(C)c(C(=O)N(C)CC3CCOCC3)n2)c1 (stereo partly shown) [Example 353-1a],10 to 20 µM,0.1 to 1 µM,–
CNCC(O)COc1cccc(-c2nc(C(=O)N(C)C)cc(-c3c(C)noc3C)n2)c1 (stereo not shown) [Example 63-1a],10 to 20 µM,1 to 3 µM,–
CNCC(O)COc1cccc(-c2nc(NC3CCOC3=O)cc(-c3c(C)noc3C)n2)c1 (stereo not shown) [Example 24-1a],–,0.1 to 1 µM,–
NCC(O)COc1cccc(-c2cc(N3CCOCC3)nc(N3CCOCC3)n2)c1 (stereo not shown) [Example 7-2],–,0.1 to 1 µM,–
CNCC(O)COc1cccc(-c2cc(C3CCOCC3)nc(N[C@H]3CCOC3)n2)c1 (stereo partly shown) [Example 10-2],–,0.1 to 1 µM,–
CNC[C@@H](O)COc1ccc(Cl)c(-c2nc(N[C@H]3CCN(C4CC4)C[C@H]3F)c(Cl)c(-c3c(C)noc3C)n2)c1 [Example 195-3],< 5 µM,–,–
